{
  "source": "patent US20100285959A1",
  "about": "“HERBICIDAL MIXTURES” (priority 2006, published 2010)",
  "key": {"ducksalad (HETLI)": {"test_system": "ducksalad (HETLI)", "experiment": "Test 32 greenhouse, simulated flooded rice culture", "format": "in vivo, Heteranthera limosa", "set-up": "scale not given here", "settings": "postemergence to flood, 21 DAA", "procedure": "(§1) A greenhouse trial was conducted to evaluate the effects of Compound 1 and isoxadifen-ethyl at different ratios in simulated flooded rice culture. Plastic pots (11-cm diameter) were partially filled with non-sterilized Tama silt loam soil containing a 15:57:28 ratio of sand, silt and clay and 2.9% organic matter. Seeds of Heteranthera limosa (ducksalad; HETLI), Cyperus difformis (smallflower umbrella sedge; CYPDI), one stand of Echinochloa crus-galli (barnyardgrass; ECHCG), and one stand of four rice seedlings (Oryza sativa cv. ‘M202’; ORYSA) were planted into a single 11-cm diameter pot for each rate and mixture of rates. To obtain this planting, C. difformis and H. limosa seeds were planted separately on the surface soil layer at particular locations within each pot. Water levels were brought to a puddled condition above the soil surface directly after planting. E. crus-galli and rice seeds were planted in cavity trays in the silt loam soil and transplanted at the 1.5 and 2.0 leaf stage, respectively. E. crus-galli and rice plants were transplanted to about 2-cm depth by transferring plugs from the cavity trays. Plantings were sequential so that these plant species all reached the 2.0- to 2.5-leaf stage in the 11-cm diameter pot at time of treatment. Plantings were established and maintained in a greenhouse with day and night temperatures of about 29.5 and 26.7° C. respectively; supplemental balanced lighting was provided to maintain a 16-hour photoperiod. Pots were fertilized periodically with a 200 ppm solution of commercial Scotts Peters® Professional® General Purpose 20-20-20 Water Soluble Fertilizer, amended to 10 ppm with a commercial iron-chelate micronutrient fertilizer. The solution was supplied at time of watering via a liquid fertilizer injector.\n(§2) At treatment time, test pots were flooded to 3 cm above the soil surface and maintained at that water depth for the duration of the test. Chemical treatments were formulated in acetone and applied directly to the paddy water (i.e., postemergence to flood). Make-up volumes of acetone were added to ensure that all pots were treated with a consistent volume. Test pots were maintained in the greenhouse. A randomized complete block design was employed. Five replicates of each treatment, alone and in mixture, were used. Each species was visually evaluated for treatment effects by comparing those treated to untreated controls and rated for plant response after 21 days."}, "rice (ORYSA)": {"test_system": "rice (ORYSA)", "experiment": "Test 32 greenhouse, simulated flooded rice culture", "format": "in vivo, Oryza sativa", "settings": "postemergence to flood, 21 DAA", "procedure": "as §1, §2"}, "wild oat (AVEFA)": {"test_system": "wild oat (AVEFA)", "experiment": "Test 4 field trial, postemergence", "format": "in vivo, Avena fatua", "set-up": "scale not given here", "procedure": "(§3) A field trial was conducted to evaluate the effects of mixtures of Compound 2 with commercial herbicides on spring wheat (TRZAS, Triticum aestivum L.) and several weed species. Wheat seeds (cv. ‘AC Intrepid’) were planted in late spring season, 3.8 cm deep in a loam soil having 2.7% organic matter and a pH of 7. Plots were 6 m long by 2.5 m wide. The field was managed using no-till practices. The plots were arranged in a randomized complete block design with each treatment being replicated four times. Treatments were applied postemergence 25 days after planting using a backpack sprayer delivering a spray volume of 55 L/ha using a pressure of 276 kPa. […] Compound 2 and clodinafop treatments, alone and in combination, also included a surfactant. Weed species present in the experimental plots in sufficient quantity to be evaluated included wild oat (AVEFA, Avena fatua L.), common lambsquarters (CHEAL, Chenopodium album L.), kochia (KCHSC, Kochia scoparia (L.) Schrad.), wild buckwheat (POLCO, Polygonum convolvulus L.), Russian thistle (SASKR, Salsola kali L. ssp. ruthenica (Iljin) Soo), and field pennycress (THLAR, Thlaspi arvense L.). […] Common lambsquarters was evaluated only at 14 days after application. […] Results are the means of the four replicates."}, "wild buckwheat (POLCO) [1]": {"test_system": "wild buckwheat (POLCO)", "experiment": "Test 4 field trial, postemergence", "format": "in vivo, Polygonum convolvulus", "procedure": "as §3"}, "wild chamomile (MATCH)": {"test_system": "wild chamomile (MATCH)", "experiment": "Test 24 growth chamber, postemergence", "format": "in vivo, Matricaria chamomilla", "settings": "17 DAA", "procedure": "(§4) Plants were treated postemergence at the 2-4 leaf growth stage, and each treatment was replicated three times. […] Plants were watered as needed. […] Results for barley and wheat are the means across varieties of the three replicates, and results for the weeds are the means of the three replicates."}, "wild buckwheat (POLCO) [2]": {"test_system": "wild buckwheat (POLCO)", "experiment": "Test 24 growth chamber, postemergence", "format": "in vivo, Polygonum convolvulus", "settings": "17 DAA", "procedure": "as §4"}, "giant ragweed (AMBTR)": {"test_system": "giant ragweed (AMBTR)", "experiment": "Test 25 field trial, postemergence, growth as percent of control", "format": "in vivo, Ambrosia trifida", "settings": "14 DAA", "text": "Corn seeds (hybrid ‘Pioneer 31G96 RR’) were planted in mid spring season, 3.8 cm deep in a clay loam soil having 2% organic matter and a pH of 6.6. Plots were 6.1 m long by 3.0 m wide with rows spaced 76 cm apart. Seeds were spaced 15 cm apart within the rows. The field was managed using conventional tillage practices. […] Giant ragweed and Pennsylvania smartweed could only be evaluated 14 days after application. […] Results are the means of the three replicates. This growth inhibition data was converted to results in the form of “plant growth as a percent of control plant growth” using the calculation “100 minus growth inhibition”.\nWhen this form of Colby's Equation is used, if the observed effects on weeds are less than the expected values, the mixture is synergistic."}, "wheat (TRZAW)": {"test_system": "wheat (TRZAW)", "experiment": "Test 28 greenhouse, post- and preemergence", "format": "in vivo, Triticum aestivum", "settings": "26 DAA", "procedure": "A greenhouse test was conducted to evaluate the effects on the plant species corn (ZEAMD, Zea mays ssp. indentata), sorghum (SORVU, Sorghum vulgare L.), dry-seeded rice (ORYSA, Oryza sativa L.), wheat (TRZAW, Triticum aestivum L.), ivyleaf morningglory (IPOHE, Ipomoea hederacea (L.) JACQ.), and barnyardgrass (ECHCG, Echinochloa crus-galli (L.) P. BEAUV.), of mixtures of Compound 2 with isoxadifen-ethyl. Corn, sorghum, rice, wheat, ivyleaf morningglory and barnyardgrass seeds were planted in RediEarth, a commercial potting medium. […] Corn plants were treated postemergence at the V2 growth stage, and sorghum, rice, wheat, ivyleaf morningglory, and barnyardgrass plants were treated postemergence at the 3-leaf stage. […] Each treatment was replicated three times. […] Plants were watered as needed."}, "[3]": {"settings": "14 DAA, Cpd 2 30 g a.i./ha alone or with clodinafop 56 or fenoxaprop 90"}, "[4]": {"settings": "14 DAA, Cpd 2 60 g a.i./ha alone or with clodinafop 56 or fenoxaprop 90"}, "[5]": {"settings": "35 DAA, Cpd 2 30 g a.i./ha alone or with clodinafop 56 or fenoxaprop 90"}, "[6]": {"settings": "35 DAA, Cpd 2 60 g a.i./ha alone or with clodinafop 56 or fenoxaprop 90"}},
  "data": [
    {"compound": "Nc1nc(C2CC2)nc(C(=O)O)c1Cl", "note": "[Compound 1, 6-amino-5-chloro-2-cyclopropyl-4-pyrimidinecarboxylic acid]", "values": [
      {"measurement": "HETLI Obs", "setting": "ducksalad (HETLI); Cpd 1 31.25 g a.i./ha", "result": 38},
      {"measurement": "HETLI Obs", "setting": "ducksalad (HETLI); Cpd 1 62.5 g a.i./ha", "result": 76},
      {"measurement": "HETLI Obs", "setting": "ducksalad (HETLI); Cpd 1 125 g a.i./ha", "result": 95},
      {"measurement": "ORYSA Obs", "setting": "rice (ORYSA); Cpd 1 31.25 g a.i./ha", "result": 9, "unit": "%"},
      {"measurement": "ORYSA Obs", "setting": "rice (ORYSA); Cpd 1 62.5 g a.i./ha", "result": 15, "unit": "%"},
      {"measurement": "ORYSA Obs", "setting": "rice (ORYSA); Cpd 1 125 g a.i./ha", "result": 27, "unit": "%"}
    ]},
    {"compound": "COC(=O)c1nc(C2CC2)nc(N)c1Cl", "note": "[Compound 2, methyl 6-amino-5-chloro-2-cyclopropyl-4-pyrimidinecarboxylate]", "values": [
      {"measurement": "AVEFA Obs", "setting": "wild oat (AVEFA); [3]", "result": 0},
      {"measurement": "AVEFA Obs", "setting": "wild oat (AVEFA); [4]", "result": 0},
      {"measurement": "AVEFA Obs", "setting": "wild oat (AVEFA); [5]", "result": 0},
      {"measurement": "AVEFA Obs", "setting": "wild oat (AVEFA); [6]", "result": 0},
      {"measurement": "AVEFA Obs", "setting": "wild oat (AVEFA); 55 DAA, Cpd 2 30 g a.i./ha alone or with clodinafop 56 or fenoxaprop 90", "result": 0},
      {"measurement": "AVEFA Obs", "setting": "wild oat (AVEFA); 55 DAA, Cpd 2 60 g a.i./ha alone or with clodinafop 56 or fenoxaprop 90", "result": 0},
      {"measurement": "POLCO Obs", "setting": "wild buckwheat (POLCO) [1]; [3]", "result": 61},
      {"measurement": "POLCO Obs", "setting": "wild buckwheat (POLCO) [1]; [4]", "result": 63},
      {"measurement": "POLCO Obs", "setting": "wild buckwheat (POLCO) [1]; [5]", "result": 51},
      {"measurement": "POLCO Obs", "setting": "wild buckwheat (POLCO) [1]; [6]", "result": 55},
      {"measurement": "MATCH Obs (scale 0 to 100)", "setting": "wild chamomile (MATCH); Cpd 2 4 g a.i./ha", "result": 55},
      {"measurement": "MATCH Obs (scale 0 to 100)", "setting": "wild chamomile (MATCH); Cpd 2 8 g a.i./ha", "result": 65},
      {"measurement": "MATCH Obs (scale 0 to 100)", "setting": "wild chamomile (MATCH); Cpd 2 16 g a.i./ha", "result": 72},
      {"measurement": "POLCO Obs (scale 0 to 100)", "setting": "wild buckwheat (POLCO) [2]; Cpd 2 4 g a.i./ha", "result": 55},
      {"measurement": "POLCO Obs (scale 0 to 100)", "setting": "wild buckwheat (POLCO) [2]; Cpd 2 8 g a.i./ha", "result": 60},
      {"measurement": "POLCO Obs (scale 0 to 100)", "setting": "wild buckwheat (POLCO) [2]; Cpd 2 16 g a.i./ha", "result": 70},
      {"measurement": "AMBTR Obs (percent of control)", "setting": "giant ragweed (AMBTR); Cpd 2 30 g a.i./ha", "result": 5, "unit": "%"},
      {"measurement": "AMBTR Obs (percent of control)", "setting": "giant ragweed (AMBTR); Cpd 2 45 g a.i./ha", "result": 0, "unit": "%"},
      {"measurement": "TRZAW Obs", "setting": "wheat (TRZAW); postemergence, Cpd 2 32 g a.i./ha", "result": 80, "unit": "%"},
      {"measurement": "TRZAW Obs", "setting": "wheat (TRZAW); postemergence, Cpd 2 64 g a.i./ha", "result": 90, "unit": "%"},
      {"measurement": "TRZAW Obs", "setting": "wheat (TRZAW); preemergence, Cpd 2 32 g a.i./ha", "result": 0, "unit": "%"},
      {"measurement": "TRZAW Obs", "setting": "wheat (TRZAW); preemergence, Cpd 2 64 g a.i./ha", "result": 27, "unit": "%"}
    ]}
  ]
}
